# Article PMC3226889 (Biochemistry, 2011)
# B1: p50 DNA (dsDNA)
# DNA 1: AAGGGACTTTCCGCTGGGGATTCCAT
# DNA 2: ATGGAATCCCCAGCGGAAAGTCCCTT
# modifications: 3'-terminal T of strand 1 is fluorescein-dT (printed as Y)
# Experiments:
# APE1 redox activity = settings: cell-based studies; ref [15], [17], [21], [23], [48]; cited from earlier work
# APE1^ΔN38 = APE1^ΔN38 (Homo sapiens, UniProt P27695); assay: NMR chemical shift perturbation titration; type: binding
# p50 (NF-kB subunit) = p50 (NF-kB subunit) (human, UniProt P19838 42-367); assay: EMSA
# Sequence of p50 (NF-kB subunit) (P19838 42-367): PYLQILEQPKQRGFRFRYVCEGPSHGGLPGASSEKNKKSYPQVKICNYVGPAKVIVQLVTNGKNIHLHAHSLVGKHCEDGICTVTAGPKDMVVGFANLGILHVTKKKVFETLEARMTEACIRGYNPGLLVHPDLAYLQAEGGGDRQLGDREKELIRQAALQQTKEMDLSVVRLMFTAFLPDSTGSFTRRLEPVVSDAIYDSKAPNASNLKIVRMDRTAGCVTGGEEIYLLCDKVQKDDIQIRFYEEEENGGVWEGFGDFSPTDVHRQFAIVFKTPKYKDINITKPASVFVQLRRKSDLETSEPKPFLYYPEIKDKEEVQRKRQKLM
# Sequence of APE1^ΔN38 (P27695 39-318): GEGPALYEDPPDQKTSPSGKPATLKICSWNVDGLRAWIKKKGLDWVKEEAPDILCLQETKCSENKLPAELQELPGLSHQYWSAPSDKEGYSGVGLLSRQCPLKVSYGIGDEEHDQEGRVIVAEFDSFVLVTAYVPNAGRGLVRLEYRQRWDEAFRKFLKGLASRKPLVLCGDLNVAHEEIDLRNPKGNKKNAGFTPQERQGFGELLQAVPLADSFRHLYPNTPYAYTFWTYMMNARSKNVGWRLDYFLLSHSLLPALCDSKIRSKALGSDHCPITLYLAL
molecule,measurement,setting,value
"CCCCCCCCC/C(=C\C1=C(C)C(=O)C(OC)=C(OC)C1=O)C(=O)O [E3330, (E)-3-[2-(5,6-dimethoxy-3-methyl-1,4-benzoquinonyl)]-2-nonylpropenoic acid]",E3330 concentrations at which observed effects occur,APE1 redox activity,5 to 50 µM
"C/C(=C\C1=C(Cl)C(=O)c2ccccc2C1=O)C(=O)O [RN7-60, (E)-3-(3-chloro-1,4-naphthoquinon-2-yl)-2-methylpropenoic acid]",Kd,APE1^ΔN38,264 ± 72 µM
same,covalent modification of Cys residues,APE1^ΔN38; NMR conditions including 0.5 mM DTT,no evidence for covalent modification of any Cys residue
same,fold tighter affinity of RN7-60 than E3330,APE1^ΔN38; similar conditions,about 2 fold
B1,binding result,p50 (NF-kB subunit),binds
